Data as given in article PMC7305236, “The atypical chemokine receptor ACKR3/CXCR7 is a broad-spectrum scavenger for opioid peptides” (Nature Communications, 2020).
Where two headings read alike, the source gives them in different places.

Experiments:
Assay type in all cases: cell-based
U87 = assay: Figure S6 EC50 comparison, U87 cells + chemokine; details: U87 cells + the labelled chemokine, titrated agonist not given, read-out: Ec50 (inset, Ec50 comparison)
[1] = Figure 7g: values after +LIH383, +LIH inverse, +CXCL12, +CXCL10
U87.ACKR3 = assay: Figure S6 EC50 comparison, U87.ACKR3 cells + chemokine; details: U87.ACKR3 cells + the labelled chemokine, titrated agonist not given, read-out: Ec50 (inset, Ec50 comparison)
CXCR4 = molecular target: T1, CXCR4 (Homo sapiens, UniProt P61073)
T1 construct: expressed in transfected cells; host or cells: U87, transient cotransfection of pNBe vectors
T1 sequence (P61073 whole entry): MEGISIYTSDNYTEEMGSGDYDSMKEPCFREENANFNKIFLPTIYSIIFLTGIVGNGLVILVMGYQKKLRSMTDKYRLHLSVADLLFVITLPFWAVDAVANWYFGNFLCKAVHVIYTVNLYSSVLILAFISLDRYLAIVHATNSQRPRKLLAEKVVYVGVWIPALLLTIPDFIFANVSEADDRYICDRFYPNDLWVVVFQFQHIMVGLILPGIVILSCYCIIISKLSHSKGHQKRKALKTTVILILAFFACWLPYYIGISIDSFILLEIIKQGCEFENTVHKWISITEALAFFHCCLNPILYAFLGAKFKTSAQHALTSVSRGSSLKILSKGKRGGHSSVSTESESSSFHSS

KOR [2] = molecular target: T2, KOR (Homo sapiens, UniProt P41145); assay: Figure 6h, KOR, DMSO vs Bafilomycin treatment; design: expressed in transfected cells; host or cells: U87 (human glioblastoma); details: n = 3 or 4 as in cell
T2 sequence (P41145 whole entry): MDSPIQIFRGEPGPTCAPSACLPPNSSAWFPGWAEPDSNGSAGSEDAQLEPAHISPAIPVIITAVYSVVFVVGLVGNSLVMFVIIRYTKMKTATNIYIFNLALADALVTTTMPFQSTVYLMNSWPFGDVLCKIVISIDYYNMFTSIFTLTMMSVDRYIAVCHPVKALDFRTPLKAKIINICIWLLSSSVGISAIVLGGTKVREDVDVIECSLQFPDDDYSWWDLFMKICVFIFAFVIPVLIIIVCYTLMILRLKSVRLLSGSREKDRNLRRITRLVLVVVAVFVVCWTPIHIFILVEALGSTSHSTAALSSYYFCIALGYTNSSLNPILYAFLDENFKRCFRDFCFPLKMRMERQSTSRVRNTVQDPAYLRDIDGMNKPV

CXCR3A = molecular target: T3, CXCR3A (Homo sapiens, UniProt P49682); assay: Figure S1a: screen of opioid peptides on CXCR3A; details: replicate 1
T3 construct: expressed in transfected cells; host or cells: U87 cells
T3 sequence (P49682 1-368): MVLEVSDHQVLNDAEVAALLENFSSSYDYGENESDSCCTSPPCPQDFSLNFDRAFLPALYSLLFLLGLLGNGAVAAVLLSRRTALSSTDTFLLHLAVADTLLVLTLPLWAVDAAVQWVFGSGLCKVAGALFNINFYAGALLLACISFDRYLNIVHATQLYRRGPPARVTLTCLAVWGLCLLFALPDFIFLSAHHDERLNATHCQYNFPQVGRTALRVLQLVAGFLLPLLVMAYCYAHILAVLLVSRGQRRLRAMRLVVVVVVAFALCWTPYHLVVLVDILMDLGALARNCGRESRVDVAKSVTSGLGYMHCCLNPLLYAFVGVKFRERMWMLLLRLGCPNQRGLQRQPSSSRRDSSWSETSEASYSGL

[3] = Figure 7f: response to FBS, CXCL12, opioid peptides and LIH383 relative to Medium; details: Medium about 1
KOR [4] = molecular target: T2, KOR; assay: Figure 6h, KOR level after ligand with DMSO or Bafilomycin; design: expressed in transfected cells; host or cells: U87 (human glioblastoma)
CXCR7 = molecular target: T4, CXCR7 (Homo sapiens, UniProt P25106); assay: Figure S1a: screen of opioid peptides on CXCR7
T4 construct: expressed in transfected cells; host or cells: U87 cells
T4 sequence (P25106 whole entry): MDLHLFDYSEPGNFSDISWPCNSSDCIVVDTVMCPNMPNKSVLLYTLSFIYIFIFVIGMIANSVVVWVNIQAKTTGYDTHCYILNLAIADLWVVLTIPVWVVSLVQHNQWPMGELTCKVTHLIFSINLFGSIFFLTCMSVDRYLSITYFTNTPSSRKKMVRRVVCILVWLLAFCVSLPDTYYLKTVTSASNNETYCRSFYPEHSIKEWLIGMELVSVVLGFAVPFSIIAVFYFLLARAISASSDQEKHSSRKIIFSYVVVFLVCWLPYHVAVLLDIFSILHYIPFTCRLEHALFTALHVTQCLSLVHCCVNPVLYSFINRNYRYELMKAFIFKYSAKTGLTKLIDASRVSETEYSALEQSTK

DOR = molecular target: T5, DOR (Homo sapiens, UniProt P41143); details: 100 nM
T5 construct: expressed in transfected cells; host or cells: U87 (human glioblastoma)
T5 sequence (P41143 whole entry): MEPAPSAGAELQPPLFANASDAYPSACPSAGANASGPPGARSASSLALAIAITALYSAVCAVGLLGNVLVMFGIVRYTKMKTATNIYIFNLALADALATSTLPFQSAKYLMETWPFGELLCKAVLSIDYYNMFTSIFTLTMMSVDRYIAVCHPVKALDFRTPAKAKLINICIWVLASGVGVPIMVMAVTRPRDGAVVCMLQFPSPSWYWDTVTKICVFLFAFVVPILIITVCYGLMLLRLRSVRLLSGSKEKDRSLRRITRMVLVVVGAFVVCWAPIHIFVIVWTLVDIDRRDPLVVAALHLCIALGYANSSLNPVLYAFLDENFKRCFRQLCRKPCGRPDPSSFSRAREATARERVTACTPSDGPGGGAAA

KOR [5] = molecular target: T2, KOR; design: expressed in transfected cells; host or cells: U87 (human glioblastoma), transient co-transfection; details: 100 nM
NOP = NOP (Homo sapiens, UniProt P41146); assay: Activity of ligands towards NOP (source data Fig 4a, 4c); details: 100 nM
Chain of NOP (P41146 whole entry): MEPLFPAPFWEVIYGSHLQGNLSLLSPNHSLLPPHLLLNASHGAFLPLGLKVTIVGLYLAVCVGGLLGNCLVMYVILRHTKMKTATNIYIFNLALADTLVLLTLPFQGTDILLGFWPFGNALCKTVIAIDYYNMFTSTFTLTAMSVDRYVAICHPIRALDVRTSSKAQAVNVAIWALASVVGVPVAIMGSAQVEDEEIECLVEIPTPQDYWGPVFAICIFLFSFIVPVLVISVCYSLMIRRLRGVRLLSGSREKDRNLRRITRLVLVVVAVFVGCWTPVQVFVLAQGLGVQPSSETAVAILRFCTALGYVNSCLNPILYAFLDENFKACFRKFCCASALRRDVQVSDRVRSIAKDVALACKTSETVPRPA

ACKR3 = ACKR3 (Homo sapiens, UniProt P25106); design: expressed in transfected cells; details: 100 nM
Chain of ACKR3 (P25106 whole entry): as the sequence (P25106 whole entry) above

Molecule: CXCL12
- EC50 (U87; replicate 1): 2.9 nM
- EC50 (U87; replicate 2): 11 nM
- EC50 (U87; replicate 3): 6.04 nM
- EC50 (U87; replicate 4): 5.61 nM
- Figure 7g value ([1]; replicate 1): 102.594
- Figure 7g value ([1]; replicate 2): 103.187
- Figure 7g value ([1]; replicate 3): 90.4001
- Figure 7g value ([1]; replicate 4): 88.8058
- EC50 (U87.ACKR3; replicate 1): 7.39 nM
- EC50 (U87.ACKR3; replicate 2): 9.3 nM
- EC50 (U87.ACKR3; replicate 3): 13.1 nM
- Figure S1a value, CXCR4 (CXCR4; replicate 1): 122.173
- Figure S1a value, CXCR4 (CXCR4; replicate 2): 86.6576
- Mean ± SEM (Figure 6h, KOR) (KOR [2]; 'DMSO vs Bafilomycin treatment'): 112,6 ± 3,88, n=4
- Mean ± SEM (Figure 6h, KOR) (KOR [2]; first of two columns under 'DMSO vs Bafilomycin treatment' (presumably DMSO)): 107,9 ± 5,673, n=4
- Figure S1a value, CXCR3A (CXCR3A): 103.792
- Figure 7f value ([3]; replicate 1): 0.8915
- Figure 7f value ([3]; replicate 2): 0.9254
- Figure 7f value ([3]; replicate 4): 0.9153
- KOR level after ligand (Figure 6h) (KOR [4]; Bafilomycin, replicate 1): 115.399
- KOR level after ligand (Figure 6h) (KOR [4]; Bafilomycin, replicate 2): 101.029
- KOR level after ligand (Figure 6h) (KOR [4]; Bafilomycin, replicate 3): 116.035
- KOR level after ligand (Figure 6h) (KOR [4]; Bafilomycin, replicate 4): 117.81
- KOR level after ligand (Figure 6h) (KOR [4]; DMSO, replicate 1): 95.0504
- KOR level after ligand (Figure 6h) (KOR [4]; DMSO, replicate 3): 120.17
- KOR level after ligand (Figure 6h) (KOR [4]; DMSO, replicate 4): 114.207

Molecule: CXCL10
- Figure S1a value, CXCR7 (CXCR7; replicate 1): 93.7533
- Figure S1a value, CXCR7 (CXCR7; replicate 2): 74.5914
- EC50 (U87; replicate 1): 6.8 nM
- EC50 (U87; replicate 2): 9.32 nM
- EC50 (U87; replicate 3): 14 nM
- Figure 7g value ([1]; replicate 1): 43.9358
- Figure 7g value ([1]; replicate 2): 53.1833
- Figure 7g value ([1]; replicate 3): 71.6583
- Figure 7g value ([1]; replicate 4): 66.9981
- EC50 (U87.ACKR3; replicate 1): 17.2 nM
- EC50 (U87.ACKR3; replicate 2): 18.1 nM
- EC50 (U87.ACKR3; replicate 3): 19.3 nM
- EC50 (U87.ACKR3; replicate 4): 29.1 nM
- Figure S1a value, CXCR4 (CXCR4; replicate 1): 64.0305
- Figure S1a value, CXCR4 (CXCR4; replicate 2): 102.577
- Figure S1a value, CXCR3A (CXCR3A): 79.87

Molecule: C=CCN1CC[C@]23CCCC[C@H]2[C@H]1Cc1ccc(O)cc13 [Levallorphan]
- DOR activity, Fig 4a (DOR; replicate 1): -48.6722
- DOR activity, Fig 4a (DOR; replicate 2): -49.4812
- DOR activity, Fig 4a (DOR; replicate 3): -45.6651
- KOR activity, Fig 4a (KOR [5]; replicate 1): -79.0502
- KOR activity, Fig 4a (KOR [5]; replicate 2): -66.9071
- KOR activity, Fig 4a (KOR [5]; replicate 3): -81.2861
- NOP activity, Fig 4a (NOP; replicate 1): 19.6254
- NOP activity, Fig 4a (NOP; replicate 2): -2.413
- NOP activity, Fig 4a (NOP; replicate 3): -13.909
- ACKR3 activity, Fig 4a (ACKR3; replicate 1): 29.7947
- ACKR3 activity, Fig 4a (ACKR3; replicate 2): -20.4867
- ACKR3 activity, Fig 4a (ACKR3; replicate 3): -0.5025
